{"source": "patent US9624167B2", "about": "“N-(4-hydroxy-4-methyl-cyclohexyl)-4-phenyl-benzenesulfonamides and N-(4-hydroxy-4-methyl-cyclohexyl)-4-(2-pyridyl)benzenesulfonamides and their therapeutic use” (PIMCO 2664 LIMITED, priority 2013, dated 2017)", "key": {"[1]": {"test_system": "collagen-induced arthritis", "test": "Mouse Collagen-Induced Arthritis", "assay_type": "in vivo, DBA/1j mice", "procedure": "Seven- to eight-week-old male DBA/1j mice were used for all procedures. Animals were housed in groups of 10, and were maintained at 21° C.±2° C. on a 12-hour light/dark cycle with food and water ad libitum. […]. All mice were immunised subcutaneously with 200 μg of bovine type II collagen in CFA. 21 days later, all mice were immunised subcutaneously with 100 μg of bovine type II collagen in IFA.\nThe mice started to develop signs and symptoms of arthritis following the ‘booster’ immunisation.\n(§1) For macroscopic assessment of arthritis, the following signs were monitored in each paw of each mouse three times per week and summed to generate the Arthritic Index (AI) (the maximum AI for one animal is 16): • 0=no visible effects of arthritis. • 1=oedema and/or erythema of 1 digit. • 2=oedema and/or erythema of 2 digits. • 3=oedema and/or erythema of more than 2 digits. • 4=severe arthritis of entire paw and digits.\nAnimals were sorted into treatment groups with a mean arthritic index of 2.5 and then dosed once daily for 14 days with compound by oral gavage for test compounds, or by subcutaneous injection at a dose of 10 mg/kg for the positive control, etanercept. After completion of the experiment, the mice were sacrificed.\n(§2) The data were analysed by generating an average of the arthritic index across each treatment group. The mean arthritic index was then compared to the arthritic index of control (untreated) animals using the following formula to generate a percentage inhibition of disease."}, "B-lymphocytes": {"test_system": "B-lymphocytes", "test": "Human primary leucocyte proliferation: B-lymphocytes", "assay_type": "cell-based", "settings": "3 μM", "procedure": "Effects on cell viability were assessed using flow cytometry. Flow cytometry is a laser-based, biophysical technology employed in cell counting, cell sorting, and biomarker detection, by suspending cells in a stream of fluid and passing them by an electronic detection apparatus. It allows simultaneous multi-parametric analysis of the physical and chemical characteristics of up to thousands of particles per second. The sorting of cells using flow cytometry requires the use of specific cell markers. To quantify cell numbers, counting beads are used as an internal standard. Counting beads are a calibrated suspension of microbeads which are added to a known volume of sample so the sample volume per bead is known. […] In addition, for B- and T-lymphocytes, cell proliferation was measured using a dye known as Cell Proliferation Dye (eFluor® 450). eFluor® 450 is an organic dye which can be conjugated to cell-specific markers. […]\nPBMCs (peripheral blood mononuclear cells) were collected from healthy donors (all female) and isolated by centrifugation on a layer of Ficoll Paque (GE Healthcare, UK). […] Following incubation, the cells were stained with anti-human CD19, a marker of B-lymphocytes, before being analysed on a flow cytometer. […]\n(§3) The average results (n=3) for the reference compound (ABD735) were expressed as a fold change versus the average control value. […]"}, "Monocytes": {"test_system": "Monocytes", "test": "Human primary leucocyte viability: monocytes", "assay_type": "cell-based", "settings": "3 μM, 48 hours", "procedure": "The effects of the reference compound (ABD735) on the viability of neutrophils, monocytes, CD4+ and CD8+ T-cells and B-lymphocytes was assessed under both resting and stimulated conditions. Resting conditions were used to assess likely effects on normal cells found in human blood, and stimulated conditions were used to assess the effects of the compound under disease conditions.\nEffects on cell viability were assessed using flow cytometry. Flow cytometry is a laser-based, biophysical technology employed in cell counting, cell sorting, and biomarker detection, by suspending cells in a stream of fluid and passing them by an electronic detection apparatus. It allows simultaneous multi-parametric analysis of the physical and chemical characteristics of up to thousands of particles per second. The sorting of cells using flow cytometry requires the use of specific cell markers. To quantify cell numbers, counting beads are used as an internal standard. Counting beads are a calibrated suspension of microbeads which are added to a known volume of sample so the sample volume per bead is known. This allows the absolute determination of cell number in a sample. In addition, for B- and T-lymphocytes, cell proliferation was measured using a dye known as Cell Proliferation Dye (eFluor® 450). eFluor® 450 is an organic dye which can be conjugated to cell-specific markers. It fluoresces when excited by a laser in a manner proportional to the number of cells bound by the conjugate. Its signal therefore provides an indication of the proliferation of specific cell types.\nPBMCs (peripheral blood mononuclear cells) were collected from healthy donors (all male) and isolated by centrifugation on a layer of Ficoll Paque (GE Healthcare, UK). Cells were then resuspended (3×10^6 cells/mL) in RPMI supplemented with 10% FCS and antibiotics (penicillin 100 U/mL, streptomycin 100 μg/mL) and 1 mL of cell suspension was added to a 48-well plate, which was then incubated for 1 hour at 37° C./5% CO2. Subsequently, the supernatant was aspirated to remove non-adherent cells, which was followed by two washing steps to ensure removal of non-adhered cells. Adhered cells (monocytes) were then stimulated with either LPS (10 ng/mL), TNFα (10 ng/mL) or macrophage colony stimulating factor (M-CSF) (10 ng/mL) in the absence (control) or presence of reference compound (ABD735) (at 30, 10, 3, 1, or 0.3 μM) for 48 hours at 37° C./5% CO2. Subsequently, the plates were centrifuged and the monocytes washed in PBS before addition of PBS plus EDTA (10 mM) and incubation at 4° C. for 20 minutes to help detach the cells, which was facilitated by pipetting. […]\nas §3"}, "[2]": {"test_system": "pristane-induced arthritis", "test": "Rat Pristane-Induced Arthritis Study", "assay_type": "in vivo", "settings": "for % inhibition of disease: once daily for 28 days; for Tolerability during extended dosing: rat pristane-induced arthritis study, oral, up to 28 days", "procedure": "Female Lewis rats were used for all procedures. Animals were housed in groups of 5, and were maintained at 21° C.±2° C. on a 12-hour light/dark cycle with food and water ad libitum. Arthritis was induced by the administration of 0.3 mL pristane intra-dermally at the base of the tail. The rats started to develop signs and symptoms of arthritis approximately seven days after the pristane injection.\nas §1, with “and digits including limb deformation and ankylosis of the joint.” for “and digits.”\nAnimals were sorted into treatment groups prior to pristane administration and dosed once daily for 28 days with test compound at doses of 3 and 10 mg/kg/day by oral gavage, or by intraperitoneal injection at a dose of 0.05 mg/kg for the positive control, methotrexate. After completion of the experiment, the rats were sacrificed.\nas §2"}, "[3]": {"settings": "10 mg/kg/day oral gavage, once daily for 14 days, arthritic index vs control"}}}
{"smiles": "Cc1cc(S(=O)(=O)N[C@H]2CC[C@H](O)CC2)ccc1-c1ccc(F)cc1F", "note": "[ABD735]", "values": [{"measurement": "% inhibition of disease", "setting": "[1]; [3]", "value": 44, "unit": "%"}, {"measurement": "Fold change in proliferation", "setting": "B-lymphocytes; SAC/IL-2, 5 days", "value": 0.6}, {"measurement": "Fold change in proliferation", "setting": "B-lymphocytes; no stimulation, 5 days", "value": 0.9}, {"measurement": "Fold change in viability", "setting": "Monocytes; LPS", "value": 1.0}, {"measurement": "Fold change in viability", "setting": "Monocytes; M-CSF", "value": 1.1}, {"measurement": "Fold change in viability", "setting": "Monocytes; TNFα", "value": 0.5}, {"measurement": "Fold change in viability", "setting": "Monocytes; no stimulation", "value": 0.7}]}
{"smiles": "C[C@]1(O)CC[C@@H](NS(=O)(=O)c2ccc(-c3ccc(F)cc3F)cc2)CC1", "note": "[ABD899, reference compound]", "values": [{"measurement": "% inhibition of disease", "setting": "[1]; [3]", "value": 77, "unit": "%"}, {"measurement": "% inhibition of disease", "setting": "[2]; 3 mg/kg/day oral gavage", "value": 21, "unit": "%"}, {"measurement": "Tolerability during extended dosing", "setting": "[2]", "value": "poorly tolerated"}]}
{"smiles": "C[C@]1(O)CC[C@H](NS(=O)(=O)c2ccc(-c3ccc(Cl)cc3C#N)cc2)CC1", "note": "[HMC-C-01-A, 4′-Chloro-2′-cyano-N-((1r,4r)-4-hydroxy-4-methylcyclohexyl)biphenyl-4-sulfonamide]", "values": [{"measurement": "% inhibition of disease", "setting": "[1]; 0.3 mg/kg/day oral gavage, once daily for 14 days", "value": 60, "unit": "%"}, {"measurement": "% inhibition of disease", "setting": "[1]; 1 mg/kg/day oral gavage, once daily for 14 days", "value": 50, "unit": "%"}, {"measurement": "% inhibition of disease", "setting": "[1]; 3 mg/kg/day oral gavage, once daily for 14 days", "value": 60, "unit": "%"}, {"measurement": "% inhibition of disease", "setting": "[1]; [3]", "value": 40, "unit": "%"}, {"measurement": "Efficacy compared with positive control etanercept", "setting": "[1]; low doses (0.3 and 3 mg/kg/day) vs etanercept 10 mg/kg subcutaneous", "value": "greater efficacy than the marketed treatment, etanercept, at low doses"}, {"measurement": "% inhibition of disease", "setting": "[2]; 3 mg/kg/day oral gavage", "value": 40, "unit": "%"}, {"measurement": "% inhibition of disease", "setting": "[2]; 10 mg/kg/day oral gavage", "value": 67, "unit": "%"}, {"measurement": "Efficacy compared with positive control methotrexate", "setting": "[2]; methotrexate 0.05 mg/kg intraperitoneal", "value": "equivalent to that of the marketed first-line therapy for rheumatoid arthritis, methotrexate"}, {"measurement": "Tolerability during extended dosing", "setting": "[2]", "value": "tolerated well"}]}
{"smiles": "C[C@]1(O)CC[C@@H](NS(=O)(=O)c2ccc(-c3ccc(Cl)cc3C#N)cc2)CC1", "note": "[HMC-C-01-B, 4′-Chloro-2′-cyano-N-((1s,4s)-4-hydroxy-4-methylcyclohexyl)-[1,1′-biphenyl]-4-sulfonamide]", "values": [{"measurement": "% inhibition of disease", "setting": "[1]; [3]", "value": 26, "unit": "%"}]}
{"smiles": "C[C@]1(O)CC[C@H](NS(=O)(=O)c2ccc(-c3ccc(F)cc3C(F)(F)F)cc2)CC1", "note": "[HMC-C-02-A, 4′-Fluoro-N-((1r,4r)-4-hydroxy-4-methylcyclohexyl)-2′-(trifluoromethyl)biphenyl-4-sulfonamide]", "values": [{"measurement": "% inhibition of disease", "setting": "[1]; [3]", "value": 61, "unit": "%"}]}
{"smiles": "C[C@]1(O)CC[C@H](NS(=O)(=O)c2ccc(-c3ncc(F)cc3F)c(F)c2)CC1", "note": "[HMC-N-01-A, 4-(3,5-Difluoropyridin-2-yl)-3-fluoro-N-((1r,4r)-4-hydroxy-4-methylcyclohexyl)benzenesulfonamide]", "values": [{"measurement": "% inhibition of disease", "setting": "[1]; [3]", "value": 45, "unit": "%"}, {"measurement": "% inhibition of disease", "setting": "[2]; 3 mg/kg/day oral gavage", "value": 39, "unit": "%"}, {"measurement": "% inhibition of disease", "setting": "[2]; 10 mg/kg/day oral gavage", "value": 60, "unit": "%"}, {"measurement": "Tolerability during extended dosing", "setting": "[2]", "value": "tolerated well"}]}
{"smiles": "C[C@]1(O)CC[C@@H](NS(=O)(=O)c2ccc(-c3ncc(F)cc3F)c(F)c2)CC1", "note": "[HMC-N-01-B, 4-(3,5-Difluoropyridin-2-yl)-3-fluoro-N-((1s,4s)-4-hydroxy-4-methylcyclohexyl)benzenesulfonamide]", "values": [{"measurement": "% inhibition of disease", "setting": "[1]; dose reduced from 10 to 1 mg/kg/day due to mortality, oral gavage", "value": 38, "unit": "%"}]}
{"smiles": "C[C@]1(O)CC[C@H](NS(=O)(=O)c2ccc(-c3ncc(F)cc3F)cc2)CC1", "note": "[HMC-N-02-A, 4-(3,5-Difluoropyridin-2-yl)-N-((1r,4r)-4-hydroxy-4-methylcyclohexyl)benzenesulfonamide]", "values": [{"measurement": "% inhibition of disease", "setting": "[1]; [3]", "value": 36, "unit": "%"}]}
